Laboratory results reported in patent US8415469B2, “Compounds and methods for kinase modulation, and indications therefor” (Plexxikon Inc., priority 2005, dated 2013).

What was measured:
Type in all cases: biochemical
Fms = biological target: T1, Fms (Homo sapiens, UniProt P07333); assay: AlphaScreen kinase assay, Fms; conditions: read-out: IC50, activity toward kinase Fms
T1 construct: purchased Upstate Biotechnology

FGFR1 = biological target: T2, FGFR1 (Homo sapiens, UniProt P11362, C488A/C584S); assay: AlphaScreen kinase assay, FGFR1; conditions: read-out: IC50, activity toward kinase FGFR
T2 construct: P1351.pET N6 BI-PTP FGFR A458-E765-X C488A, C584S; made in house; host or cells: E. coli (PTP1B co-expressed)
T2 sequence (P11362 458-765 C488A/C584S): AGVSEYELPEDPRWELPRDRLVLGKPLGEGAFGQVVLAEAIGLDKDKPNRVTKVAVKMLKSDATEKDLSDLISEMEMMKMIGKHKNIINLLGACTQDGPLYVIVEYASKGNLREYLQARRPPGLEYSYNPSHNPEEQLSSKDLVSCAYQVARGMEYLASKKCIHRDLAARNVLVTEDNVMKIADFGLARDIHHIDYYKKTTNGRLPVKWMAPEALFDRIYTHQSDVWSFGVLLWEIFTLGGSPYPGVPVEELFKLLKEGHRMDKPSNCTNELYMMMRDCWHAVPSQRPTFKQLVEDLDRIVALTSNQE

B-Raf = biological target: T3, B-Raf (Homo sapiens, UniProt P15056); assay: AlphaScreen kinase assay, B-Raf; conditions: read-out: IC50, activity toward kinase B-Raf
T3 construct: purchased Upstate Biotechnology
T3 sequence (P15056 whole entry): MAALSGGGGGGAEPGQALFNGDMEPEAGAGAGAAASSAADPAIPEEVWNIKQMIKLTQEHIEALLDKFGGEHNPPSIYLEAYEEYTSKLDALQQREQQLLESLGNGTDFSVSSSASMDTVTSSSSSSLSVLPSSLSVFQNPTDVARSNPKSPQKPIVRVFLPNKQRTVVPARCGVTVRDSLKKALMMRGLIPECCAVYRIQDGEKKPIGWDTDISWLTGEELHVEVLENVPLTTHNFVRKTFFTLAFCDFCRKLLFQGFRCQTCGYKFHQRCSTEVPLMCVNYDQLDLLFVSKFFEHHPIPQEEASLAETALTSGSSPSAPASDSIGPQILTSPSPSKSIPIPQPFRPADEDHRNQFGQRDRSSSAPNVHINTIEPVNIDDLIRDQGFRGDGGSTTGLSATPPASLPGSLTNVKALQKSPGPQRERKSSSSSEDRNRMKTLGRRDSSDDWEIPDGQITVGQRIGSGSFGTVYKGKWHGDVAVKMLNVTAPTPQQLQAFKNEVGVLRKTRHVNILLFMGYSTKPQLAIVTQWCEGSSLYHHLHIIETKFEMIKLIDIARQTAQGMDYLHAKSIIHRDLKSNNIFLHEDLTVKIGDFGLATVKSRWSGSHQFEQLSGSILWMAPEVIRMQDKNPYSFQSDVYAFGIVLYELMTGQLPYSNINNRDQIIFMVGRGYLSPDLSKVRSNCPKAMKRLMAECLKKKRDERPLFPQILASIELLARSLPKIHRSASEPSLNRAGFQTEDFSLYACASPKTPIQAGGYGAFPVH
Text: AlphaScreen assay was used to screen additional kinases. The assay is similarly dependent on the phosphorylation of a peptide substrate. In this assay, an antibody that recognizes phosphorylated substrate is bound to an acceptor bead. The peptide substrate is attached to biotin, which binds to a donor head that contains streptavidin. Thus phosphorylated substrate is bound by antibody and streptavidin, bringing the donor and acceptor heads into close proximity when kinase is not inhibited. The donor produces singlet oxygen which results in emission from the acceptor when they are in close proximity. Conversely, when kinase is inhibited, the donor and acceptor beads are not associated and the emission from the acceptor is reduced.
AlphaScreen assays were done using compounds dissolved in DMSO to a concentration of 20 mM. The compounds were diluted accordingly to the desired final concentrations in each sample well, using 1:3 serial dilution for a total of 8 concentration points. Plates were prepared such that each kinase reaction is 20 μl in 1× kinase buffer, 5% DMSO and 10 μM ATP. After incubation of the kinase reaction for 1 hour at room temperature, 5 μl of donor beads in stop buffer (50 mM EDTA in 1× kinase buffer) was added, the sample was mixed and incubated for 20 minutes at room temperature before adding 5 μl of acceptor beads in stop buffer. The samples were incubated for 60 minutes at room temperature and the signal per well was read on AlphaQuest reader.

Kit = biological target: T4, Kit (Homo sapiens, UniProt P10721); assay: AlphaScreen kinase assay, Kit; conditions: read-out: IC50, activity toward kinase Kit
T4 construct: P1332.N6 BI PTP KIT M552-K948-X COD; His6 (N); made in house; host or cells: E. coli (PTP1B co-expressed)
T4 sequence (P10721 with tags, fused parts or gaps): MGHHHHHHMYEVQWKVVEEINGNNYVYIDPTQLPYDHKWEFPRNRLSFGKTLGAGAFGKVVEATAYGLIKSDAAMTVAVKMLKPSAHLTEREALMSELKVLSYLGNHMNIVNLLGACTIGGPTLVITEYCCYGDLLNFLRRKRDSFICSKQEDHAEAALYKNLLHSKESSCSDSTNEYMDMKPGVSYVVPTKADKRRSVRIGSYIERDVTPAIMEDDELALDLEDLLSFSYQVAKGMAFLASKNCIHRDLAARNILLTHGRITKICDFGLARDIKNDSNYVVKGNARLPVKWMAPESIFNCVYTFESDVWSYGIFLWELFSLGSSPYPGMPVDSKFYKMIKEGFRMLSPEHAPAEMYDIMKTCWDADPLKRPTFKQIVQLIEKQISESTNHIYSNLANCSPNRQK

B-Raf V600E = biological target: T5, B-Raf V600E (Homo sapiens, UniProt P15056, V600E); assay: AlphaScreen kinase assay, B-Raf V600E; conditions: read-out: IC50, activity toward kinase B-Raf V600E
T5 construct: P4254. pFastBacBD-CDC37 BRAF D437-K722-X, V600E; His6 with pFastBac HT leader (TEV site) (N); made in house; host or cells: Sf9 (baculovirus; chaperone CDC37 co-expressed)
T5 sequence (P15056 with tags, fused parts or gaps V600E): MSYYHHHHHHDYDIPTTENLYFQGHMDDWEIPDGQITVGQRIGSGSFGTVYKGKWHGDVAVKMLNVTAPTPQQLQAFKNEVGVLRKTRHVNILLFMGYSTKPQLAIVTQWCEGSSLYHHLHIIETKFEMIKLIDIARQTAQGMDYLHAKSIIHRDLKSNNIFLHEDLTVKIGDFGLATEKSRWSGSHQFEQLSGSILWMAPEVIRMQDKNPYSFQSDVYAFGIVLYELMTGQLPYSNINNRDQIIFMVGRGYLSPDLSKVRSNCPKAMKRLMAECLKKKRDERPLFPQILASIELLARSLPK

Measured: IC50

T1 sequence (P07333 20-972): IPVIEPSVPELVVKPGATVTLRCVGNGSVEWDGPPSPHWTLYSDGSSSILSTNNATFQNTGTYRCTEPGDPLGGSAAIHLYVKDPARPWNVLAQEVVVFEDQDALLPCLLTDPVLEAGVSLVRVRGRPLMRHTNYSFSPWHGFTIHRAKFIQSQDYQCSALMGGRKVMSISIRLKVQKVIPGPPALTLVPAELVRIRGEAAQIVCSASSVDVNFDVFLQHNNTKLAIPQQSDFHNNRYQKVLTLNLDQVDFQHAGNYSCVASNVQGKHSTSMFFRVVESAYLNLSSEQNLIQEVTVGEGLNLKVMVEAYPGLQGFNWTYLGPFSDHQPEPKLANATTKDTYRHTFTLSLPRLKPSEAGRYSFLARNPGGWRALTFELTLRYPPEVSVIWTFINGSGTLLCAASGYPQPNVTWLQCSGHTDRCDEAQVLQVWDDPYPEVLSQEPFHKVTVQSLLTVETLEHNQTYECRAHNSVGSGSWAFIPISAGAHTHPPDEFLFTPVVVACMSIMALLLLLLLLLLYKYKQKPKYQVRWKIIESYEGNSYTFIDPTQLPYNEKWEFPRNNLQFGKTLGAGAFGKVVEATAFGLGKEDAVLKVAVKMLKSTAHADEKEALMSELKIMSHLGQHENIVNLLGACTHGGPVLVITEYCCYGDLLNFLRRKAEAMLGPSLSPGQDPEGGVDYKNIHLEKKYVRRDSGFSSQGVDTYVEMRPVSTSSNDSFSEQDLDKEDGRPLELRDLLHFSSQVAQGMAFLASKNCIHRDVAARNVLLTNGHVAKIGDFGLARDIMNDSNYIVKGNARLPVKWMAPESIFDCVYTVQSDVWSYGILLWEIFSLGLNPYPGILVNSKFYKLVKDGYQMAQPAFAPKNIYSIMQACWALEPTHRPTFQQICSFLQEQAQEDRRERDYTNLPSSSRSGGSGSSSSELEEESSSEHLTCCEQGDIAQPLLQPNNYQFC

O=C(c1ccc(F)cc1F)c1c[nH]c2ncc(-c3cccnc3)cc12 [Compound P-1555]
≤ 10 µM: Fms | FGFR1 | B-Raf

COc1ccc(NC(=O)Nc2cccc(C(=O)c3c[nH]c4ncccc34)c2)cc1 [Compound P-1705, 1-(4-Methoxy-phenyl)-3-[3-(1H-pyrrolo[2,3-b]pyridine-3-carbonyl)-phenyl]-urea]
not listed: FGFR1
≤ 10 µM: all other assays above

O=C(Nc1cccc(C(=O)c2c[nH]c3ncccc23)c1)Nc1ccc(C(F)(F)F)c(Cl)c1 [Compound P-1766, 1-(3-Chloro-4-trifluoromethyl-phenyl)-3-[3-(1H-pyrrolo[2,3-b]pyridine-3-carbonyl)-phenyl]-urea]
≤ 10 µM: Fms | B-Raf | B-Raf V600E

O=C(Nc1cccnc1)Nc1cccc(C(=O)c2c[nH]c3ncc(Cl)cc23)c1 [Compound P-1771, 1-[3-(5-Chloro-1H-pyrrolo[2,3-b]pyridine-3-carbonyl)-phenyl]-3-pyridin-3-yl-urea]
≤ 10 µM: Fms | B-Raf | B-Raf V600E

COCCNC(=O)Nc1cccc(C(=O)c2c[nH]c3ncc(Cl)cc23)c1 [Compound P-1772, 1-[3-(5-Chloro-1H-pyrrolo[2 3-b]pyridine-3-carbonyl)-phenyl]-3-(2-methoxy-ethyl)-urea]
≤ 10 µM: Fms | B-Raf | B-Raf V600E

COc1cc(NC(=O)Nc2cccc(C(=O)c3c[nH]c4ncc(Cl)cc34)c2)cc(C(F)(F)F)c1 [Compound P-1773, 1-[3-(5-Chloro-1H-pyrrolo[2,3-b]pyridine-3-carbonyl)-phenyl]-3-(3-methoxy-5-trifluoromethyl-phenyl)-urea]
≤ 10 µM: Fms | B-Raf | B-Raf V600E

COc1ccc(NC(=O)Nc2cccc(C(=O)c3c[nH]c4ncc(Cl)cc34)c2)cn1 [Compound P-1774, 1-[3-(5-Chloro-1H-pyrrolo[2,3-b]pyridine-3-carbonyl)-phenyl]-3-(6-methoxy-pyridin-3-yl)-urea]
≤ 10 µM: Fms | B-Raf | B-Raf V600E

CN(C)c1ccc(NC(=O)Nc2cccc(C(=O)c3c[nH]c4ncccc34)c2)cc1 [Compound P-1780, 1-(4-Dimethylamino-phenyl)-3-[3-(1H-pyrrolo[2,3-b]pyridine-3-carbonyl)-phenyl]-urea]
≤ 10 µM: Fms | B-Raf | B-Raf V600E

O=C(Nc1cccnc1)Nc1cccc(C(=O)c2c[nH]c3ncccc23)c1 [Compound P-1781, 1-Pyridin-3-yl-3-[3-(1H-pyrrolo[2,3-b]pyridine-3-carbonyl)-phenyl]-urea]
≤ 10 µM: Fms | B-Raf | B-Raf V600E

CN(C)c1ccc(NC(=O)Nc2cccc(C(=O)c3c[nH]c4ncc(Cl)cc34)c2)cc1 [Compound P-1782, 1-[3-(5-Chloro-1H-pyrrolo[2,3-b]pyridine-3-carbonyl)-phenyl]-3-(4-dimethylamino-phenyl)-urea]
≤ 10 µM: Fms | B-Raf | B-Raf V600E

O=C(c1cccc(NS(=O)(=O)c2ccc(C(F)(F)F)cc2)c1)c1c[nH]c2ncccc12 [Compound P-1784]
≤ 10 µM: Fms | B-Raf | B-Raf V600E

O=C(c1c(F)ccc(NS(=O)(=O)c2cc3ccccc3s2)c1F)c1c[nH]c2ncc(Cl)cc12 [Compound P-1799, Benzo[b]thiophene-2-sulfonic acid [3-(5-chloro-1H-pyrrolo[2,3-b]pyridine-3-carbonyl)-2,4-difluoro-phenyl]-amide]
≤ 10 µM: Fms | B-Raf | B-Raf V600E

O=C(c1c(F)ccc(NS(=O)(=O)c2ccc(-c3ccccn3)s2)c1F)c1c[nH]c2ncc(Cl)cc12 [Compound P-1800, 5-Pyridin-2-yl-thiophene-2-sulfonic acid [3-(5-chloro-1H-pyrrolo[2,3-b]pyridine-3-carbonyl)-2,4-difluoro-phenyl]-amide]
≤ 10 µM: Fms | B-Raf | B-Raf V600E

COc1cnc2[nH]cc(Cc3c(F)ccc(OCc4ccccc4)c3F)c2c1 [Compound P-1804, 3-(3-Benzyloxy-2,6-difluoro-benzyl)-5-methoxy-1H-pyrrolo[2,3-b]pyridine]
≤ 10 µM: Fms | B-Raf | B-Raf V600E

O=C(Nc1ccc(F)cc1)Nc1cccc(C(=O)c2c[nH]c3ncc(-c4ccc(F)cc4)cc23)c1 [Compound P-1816, 1-(4-Fluoro-phenyl)-3-{3-[5-(4-fluoro-phenyl)-1H-pyrrolo[2,3-b]pyridine-3-carbonyl]-phenyl}-urea]
≤ 10 µM: Fms | B-Raf | B-Raf V600E

O=C(Nc1cccc(C(=O)c2c[nH]c3ncc(-c4ccc(F)cc4)cc23)c1)Nc1ccc(F)c(F)c1 [Compound P-1817, 1-(3,4-Difluoro-phenyl)-3-{3-[5-(4-fluoro-phenyl)-1H-pyrrolo[2,3-b]pyridine-3-carbonyl]-phenyl}-urea]
≤ 10 µM: Fms | B-Raf | B-Raf V600E

COc1ccc(NC(=O)Nc2cccc(C(=O)c3c[nH]c4ncc(-c5ccc(F)cc5)cc34)c2)cc1OC [Compound P-1818, 1-(3,4-Dimethoxy-phenyl)-3-{3-[5-(4-fluoro-phenyl)-1H-pyrrolo[2,3-b]pyridine-3-carbonyl]-phenyl}-urea]
≤ 10 µM: Fms | B-Raf | B-Raf V600E

O=C(Nc1cccc(F)c1)Nc1cccc(C(=O)c2c[nH]c3ncc(-c4ccc(F)cc4)cc23)c1 [Compound P-1819, 1-(3-Fluoro-phenyl)-3-{3-[5-(4-fluoro-phenyl)-1H-pyrrolo[2,3-b]pyridine-3-carbonyl]-phenyl}-urea]
≤ 10 µM: Fms | B-Raf | B-Raf V600E

COC(=O)c1ccc(S(=O)(=O)Nc2ccc(F)c(C(=O)c3c[nH]c4ncc(Cl)cc34)c2F)o1 [Compound P-1907, 5-[3-(5-Chloro-1H-pyrrolo[2,3-b]pyridine-3-carbonyl)-2,4-difluoro-phenylsulfamoyl]-furan-2-carboxylic acid methyl ester]
≤ 10 µM: Fms | B-Raf | B-Raf V600E

O=C(c1c(F)ccc(NS(=O)(=O)c2ccccc2F)c1F)c1c[nH]c2ncc(Cl)cc12 [Compound P-1912, N-[3-(5-Chloro-1H-pyrrolo[2,3-b]pyridine-3-carbonyl)-2,4-difluoro-phenyl]-2-fluoro-benzenesulfonamide]
≤ 10 µM: Fms | B-Raf | B-Raf V600E

O=C(c1c(F)ccc(NS(=O)(=O)c2ccc(OC(F)F)cc2)c1F)c1c[nH]c2ncc(Cl)cc12 [Compound P-1916, N-[3-(5-Chloro-1H-pyrrolo[2,3-b]pyridine-3-carbonyl)-2,4-difluoro-phenyl]-4-difluoromethoxy-benzenesulfonamide]
≤ 10 µM: Fms | B-Raf | B-Raf V600E

COCCOc1cnc2[nH]cc(C(=O)c3c(F)ccc(NS(=O)(=O)c4ccc(C(F)(F)F)cc4)c3F)c2c1 [Compound P-2005, N-{2,4-Difluoro-3-[5-(2-methoxy-ethoxy)-1H-pyrrolo[2,3-b]pyridine-3-carbonyl]-phenyl}-4-trifluoromethyl-benzenesulfonamide]
≤ 10 µM: Fms | B-Raf | B-Raf V600E

CCCS(=O)(=O)Nc1ccc(F)c(C(=O)c2c[nH]c3ncc(-c4nc(C)c[nH]4)cc23)c1F [Compound P-2006, Propane-1-sulfonic acid {2,4-difluoro-3-[5-(4-methyl-1H-imidazol-2-yl)-1H-pyrrolo[2,3-b]pyridine-3-carbonyl]-phenyl}-amide]
≤ 10 µM: Fms | B-Raf | B-Raf V600E

COc1ccc(-c2cnc3[nH]cc(C(=O)c4c(F)ccc(NS(=O)(=O)c5cccc(F)c5)c4F)c3c2)cn1 [Compound P-2012, N-{2,4-Difluoro-3-[5-(6-methoxy-pyridin-3-yl)-1H-pyrrolo[2,3-b]pyridine-3-carbonyl]-phenyl}-3-fluoro-benzenesulfonamide]
≤ 10 µM: Fms | B-Raf | B-Raf V600E

COCCOc1ccc(-c2cnc3[nH]cc(C(=O)c4c(F)ccc(NS(=O)(=O)c5ccc(C(F)(F)F)cc5)c4F)c3c2)cc1 [Compound P-2013, N-(2,4-Difluoro-3-{5-[4-(2-methoxy-ethoxy)-phenyl]-1H-pyrrolo[2,3-b]pyridine-3-carbonyl}-phenyl)-4-trifluoromethyl-benzenesulfonamide]
≤ 10 µM: Fms | B-Raf | B-Raf V600E
